Results reported in patent US9708314B2, “Heterocyclic amide compound” (NISSAN CHEMICAL INDUSTRIES, LTD., priority 2013, dated 2017).

Key:
Type in all cases: in vivo
[1] = tested on: Echinochloa oryzacola Vasing.; assay: Test Example 1: herbicidal activity, application before weed generation in submerged conditions; settings: Application herbicide amount 320 g/ha; Seventeenth Table
Procedure, shortened: (§1)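 Water-diluted emulsion formulation is applied onto flood water (4 cm deep) covering alluvial soil on the day weed seeds are sown, after transplanting 2.5 leaf stage rice. Rates are expressed per hectare. Injury or control is graded 0–5 three weeks later.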

[2] = tested on: Monochoria vaginalis; assay: as above; settings: Application herbicide amount 320 g/ha; Seventeenth Table
Procedure, shortened: as §1

[3] = tested on: Scirpus juncoides; assay: as above; settings: Application herbicide amount 320 g/ha; Seventeenth Table
Procedure, shortened: as §1

[4] = tested on: Echinochloa oryzacola Vasing.; assay: Test Example 2: herbicidal activity, application during weed generation in submerged conditions; settings: Eighteenth Table; application herbicide amount 320 g/ha
Procedure, shortened: (§2)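 Seeds were sown together in alluvial soil kept under 4 cm of water and grown at 25 °C to 30 °C. Once plants reached the one- to two-leaf stage, the diluted emulsion was applied to the water surface at a predetermined g/ha amount, and effects were rated 0–5 after three weeks.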

[5] = tested on: Monochoria vaginalis; assay: as above; settings: Eighteenth Table; application herbicide amount 320 g/ha
Procedure, shortened: as §2

[6] = tested on: Scirpus juncoides; assay: as above; settings: Eighteenth Table; application herbicide amount 320 g/ha
Procedure, shortened: as §2

[7] = tested on: Chenopodium album; assay: Test Example 4: herbicidal effect by application to foliage (diluvial soil, plastic box); settings: for O (Chenopodium album) herbicidal effect: application to foliage, application herbicide amount 320 g/ha; for O: Application herbicide amount 320 g/ha
Procedure, shortened: (§3)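 Greenhouse plants (25° C. to 30° C., 14 d, diluvial soil) receive a foliar spray of water-diluted emulsifiable formulation at defined g/ha. Grading after 3 weeks uses a six-step herbicidal-ratio scale, with 4 covering 70% to <90% and 1 covering 5% to <20%.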

[8] = tested on: Echinochloa crus-galli var. crus-galli; assay: as above; settings: for H (Echinochloa crus-galli var. crus-galli) herbicidal effect: application to foliage, application herbicide amount 320 g/ha; for H: Application herbicide amount 320 g/ha
Procedure, shortened: as §3

[9] = tested on: Triticum aestivum; assay: Test Example 4: effect on crop by application to foliage (diluvial soil, plastic box); settings: for e (Triticum aestivum) effect on crop: application to foliage, application herbicide amount 320 g/ha; for e: Application herbicide amount 320 g/ha, effect on crop
Procedure, shortened: as §3

| Compound | A: Echinochloa oryzicola Vasing. (herbicidal effect grade) [1] | C: Monochoria vaginalis (herbicidal effect grade) [2] | B: Scirpus juncoides (herbicidal effect grade) [3] | A (Echinochloa oryzicola Vasing.) herbicidal ratio grade [4] | C (Monochoria vaginalis) herbicidal ratio grade [5] | B (Scirpus juncoides) herbicidal ratio grade [6] | O (Chenopodium album) herbicidal effect [7] | H (Echinochloa crus-galli var. crus-galli) herbicidal effect [8] | e (Triticum aestivum) effect on crop [9] | O [7] | H [8] | e [9] |
| --- | --- | --- | --- | --- | --- | --- | --- | --- | --- | --- | --- | --- |
| CC(C)c1nnc2c(C(=O)Nc3nnc(C4CC4)o3)ccc(C(F)(F)F)n12 [1-051] | 5 (Herbicidal ratio of 90% or more (almost completely withered)) | 4 (Herbicidal ratio of 70% or more and less than 90%) | 4 (Herbicidal ratio of 70% or more and less than 90%) | 4 (Herbicidal ratio of 70% or more and less than 90%) | 4 (Herbicidal ratio of 70% or more and less than 90%) | 3 (Herbicidal ratio of 40% or more and less than 70%) | 5 (Herbicidal ratio of 90% or more (almost completely withered)) | 4 (Herbicidal ratio of 70% or more and less than 90%) | 1 (Herbicidal ratio of 5% or more and less than 20%) |  |  |  |
| COCCc1nnc(NC(=O)c2ccc(C(F)(F)F)n3c(C(C)C)nnc23)o1 [1-052] | 3 (Herbicidal ratio of 40% or more and less than 70%) | 2 (Herbicidal ratio of 20% or more and less than 40%) | 3 (Herbicidal ratio of 40% or more and less than 70%) | 1 (Herbicidal ratio of 5% or more and less than 20%) | 0 (Herbicidal ratio of 5% or less (almost no effect)) | 1 (Herbicidal ratio of 5% or more and less than 20%) | 5 (Herbicidal ratio of 90% or more (almost completely withered)) | 2 (Herbicidal ratio of 20% or more and less than 40%) | 0 (Herbicidal ratio of 5% or less (almost no effect)) |  |  |  |
| Cc1nnc(NC(=O)c2ccc(C(F)F)n3c(C(C)C)nnc23)o1 [1-053] | 2 (Herbicidal ratio of 20% or more and less than 40%) | 2 (Herbicidal ratio of 20% or more and less than 40%) | 3 (Herbicidal ratio of 40% or more and less than 70%) | 1 (Herbicidal ratio of 5% or more and less than 20%) | 0 (Herbicidal ratio of 5% or less (almost no effect)) | 2 (Herbicidal ratio of 20% or more and less than 40%) | 5 (Herbicidal ratio of 90% or more (almost completely withered)) | 3 (Herbicidal ratio of 40% or more and less than 70%) | 0 (Herbicidal ratio of 5% or less (almost no effect)) |  |  |  |
| Cc1nnc(NC(=O)c2ccc(C(F)(F)F)n3c(-c4ccc(Cl)nc4)nnc23)o1 [1-054] | 5 (Herbicidal ratio of 90% or more (almost completely withered)) | 4 (Herbicidal ratio of 70% or more and less than 90%) | 3 (Herbicidal ratio of 40% or more and less than 70%) | 4 (Herbicidal ratio of 70% or more and less than 90%) | 3 (Herbicidal ratio of 40% or more and less than 70%) | 3 (Herbicidal ratio of 40% or more and less than 70%) |  |  |  | 5 (Herbicidal ratio of 90% or more (almost completely withered)) | 5 (Herbicidal ratio of 90% or more (almost completely withered)) | 3 (Herbicidal ratio of 40% or more and less than 70%) |
| Cc1nnc(NC(=O)c2ccc(C(F)(F)F)n3c(-c4cccc(Cl)n4)nnc23)o1 [1-055] | 4 (Herbicidal ratio of 70% or more and less than 90%) | 4 (Herbicidal ratio of 70% or more and less than 90%) | 4 (Herbicidal ratio of 70% or more and less than 90%) | 3 (Herbicidal ratio of 40% or more and less than 70%) | 3 (Herbicidal ratio of 40% or more and less than 70%) | 3 (Herbicidal ratio of 40% or more and less than 70%) |  |  |  | 5 (Herbicidal ratio of 90% or more (almost completely withered)) | 4 (Herbicidal ratio of 70% or more and less than 90%) | 1 (Herbicidal ratio of 5% or more and less than 20%) |
| Cc1cc(-c2nnc3c(C(=O)Nc4nnc(C)o4)ccc(C(F)(F)F)n23)n(C)n1 [1-056] | 5 (Herbicidal ratio of 90% or more (almost completely withered)) | 4 (Herbicidal ratio of 70% or more and less than 90%) | 5 (Herbicidal ratio of 90% or more (almost completely withered)) | 5 (Herbicidal ratio of 90% or more (almost completely withered)) | 4 (Herbicidal ratio of 70% or more and less than 90%) | 4 (Herbicidal ratio of 70% or more and less than 90%) |  |  |  | 5 (Herbicidal ratio of 90% or more (almost completely withered)) | 5 (Herbicidal ratio of 90% or more (almost completely withered)) | 1 (Herbicidal ratio of 5% or more and less than 20%) |
| Cc1nnc(NC(=O)c2ccc(C(F)(F)F)n3c(-c4cccs4)nnc23)o1 [1-057] | 5 (Herbicidal ratio of 90% or more (almost completely withered)) | 4 (Herbicidal ratio of 70% or more and less than 90%) | 5 (Herbicidal ratio of 90% or more (almost completely withered)) | 2 (Herbicidal ratio of 20% or more and less than 40%) | 3 (Herbicidal ratio of 40% or more and less than 70%) | 3 (Herbicidal ratio of 40% or more and less than 70%) |  |  |  | 5 (Herbicidal ratio of 90% or more (almost completely withered)) | 4 (Herbicidal ratio of 70% or more and less than 90%) | 0 (Herbicidal ratio of 5% or less (almost no effect)) |
| Cc1nnc(NC(=O)c2ccc(C(F)(F)F)n3c(-c4cncs4)nnc23)o1 [1-058] | 5 (Herbicidal ratio of 90% or more (almost completely withered)) | 4 (Herbicidal ratio of 70% or more and less than 90%) | 5 (Herbicidal ratio of 90% or more (almost completely withered)) | 4 (Herbicidal ratio of 70% or more and less than 90%) | 4 (Herbicidal ratio of 70% or more and less than 90%) | 5 (Herbicidal ratio of 90% or more (almost completely withered)) |  |  |  | 5 (Herbicidal ratio of 90% or more (almost completely withered)) | 5 (Herbicidal ratio of 90% or more (almost completely withered)) | 1 (Herbicidal ratio of 5% or more and less than 20%) |
| C#CCSc1nnc2c(C(=O)Nc3nnc(C)o3)ccc(C(F)(F)F)n12 [1-065] | 5 (Herbicidal ratio of 90% or more (almost completely withered)) | 2 (Herbicidal ratio of 20% or more and less than 40%) | 3 (Herbicidal ratio of 40% or more and less than 70%) | 1 (Herbicidal ratio of 5% or more and less than 20%) | 2 (Herbicidal ratio of 20% or more and less than 40%) | 2 (Herbicidal ratio of 20% or more and less than 40%) |  |  |  | 5 (Herbicidal ratio of 90% or more (almost completely withered)) | 1 (Herbicidal ratio of 5% or more and less than 20%) | 0 (Herbicidal ratio of 5% or less (almost no effect)) |
| Cc1nnc(NC(=O)c2ccc(C(F)(F)C(F)(F)F)n3c(C(C)C)nnc23)o1 [1-066] | 5 (Herbicidal ratio of 90% or more (almost completely withered)) | 2 (Herbicidal ratio of 20% or more and less than 40%) | 4 (Herbicidal ratio of 70% or more and less than 90%) | 2 (Herbicidal ratio of 20% or more and less than 40%) | 2 (Herbicidal ratio of 20% or more and less than 40%) | 3 (Herbicidal ratio of 40% or more and less than 70%) |  |  |  | 5 (Herbicidal ratio of 90% or more (almost completely withered)) | 4 (Herbicidal ratio of 70% or more and less than 90%) | 0 (Herbicidal ratio of 5% or less (almost no effect)) |
